Experimental findings from patent US8759318B2, “Phosphoramidate derivatives of guanosine nucleoside compounds for treatment of viral infections” (Inhibitex, Inc., priority 2009, dated 2014) are described below.

Read-outs that look alike come from different tables or passages of the source.

One series in a line: in vitro. Conditions: human.
In series [1] the test system is HCV replicon (Genotype 1b). Nature of the series: Luciferase genotype 1b replicon potency assay. Conditions: Hepatitis C virus.
[2] abbreviates: GETYPE1B, read-out: IC50 μM, HCV genotype 1b luciferase replicon, Renilla luciferase reporter.

As a reminder, the IC50 is the point on the concentration scale where inhibition reaches its midpoint. As to `COc1nc(N)nc2c1ncn2C1O[C@H](COP(=O)(N[C@H](C(=O)OCC(C)(C)C)C(C)C)Oc2cccc3ncccc23)[C@@H](O)[C@@]1(C)O` (stereo partly drawn) [Example 50, (2S)-neopentyl 2-((((2R,3R,4R)-5-(2-amino-6-methoxy-9H-purin-9-yl)-3,4-dihydroxy-4-methyltetrahydrofuran-2-yl)methoxy)(quinolin-5-yloxy)phosphorylamino)-3-methylbutanoate], the CC50 in “in vitro” was over 100 µM. Further, in series [1] (setting [2]), the half-maximal inhibitory concentration (IC50) is 0.55 µM.
In turn, `COc1nc(N)nc2c1ncn2C1O[C@H](COP(=O)(N[C@@H](C)C(=O)OC2Cc3ccccc3C2)Oc2cccc3ccccc23)[C@@H](O)[C@@]1(C)O` (stereo partly drawn) [Example 16, (2S)-2,3-dihydro-1H-inden-2-yl 2-((((2R,3R,4R)-5-(2-amino-6-methoxy-9H-purin-9-yl)-3,4-dihydroxy-4-methyltetrahydrofuran-2-yl)methoxy) (naphthalen-1-yloxy)phosphorylamino)propanoate] returned a CC50 in the series “in vitro” of 11 µM. Moreover, the 50% inhibitory concentration (IC50) in series [1] (setting [2]) was 0.027 µM.
In the series “in vitro”, `COc1nc(N)nc2c1ncn2C1O[C@H](COP(=O)(N[C@@H](C)C(=O)OC2CCCCC2)Oc2cccc3ccccc23)[C@@H](O)[C@@]1(C)O` (stereo partly drawn) [Example 25, (2S)-cyclohexyl 2-((((2R,3R,4R)-5-(2-amino-6-methoxy-9H-purin-9-yl)-3,4-dihydroxy-4-methyltetrahydrofuran-2-yl)methoxy)(naphthalen-1-yloxy)phosphorylamino)propanoate] showed a CC50 of 6 µM. The concentration for half-maximal inhibition (IC50) in series [1] (setting [2]) was determined as 0.014 µM.
For `CCOc1nc(N)nc2c1ncn2C1O[C@H](COP(=O)(N[C@@H](C)C(=O)OC(C)C)Oc2cccc3ccccc23)[C@@H](O)[C@@]1(C)O` (stereo partly drawn) [Example 77, (2S)-isopropyl 2-((((2R,3R,4R)-5-(2-amino-6-ethoxy-9H-purin-9-yl)-3,4-dihydroxy-4-methyltetrahydrofuran-2-yl)methoxy)(naphthalen-1-yloxy)phosphorylamino)propanoate], in that order: 40 µM and 0.11 µM.
For `COc1nc(N)nc2c1ncn2C1O[C@H](CO[P@@](=O)(N[C@@H](C)C(=O)OCC(C)(C)C)Oc2cccc3ccccc23)[C@@H](O)[C@@]1(C)O` (stereo partly drawn) [Example 21], in that order: 13 µM and 0.043 µM.
As to `COc1nc(N)nc2c1ncn2C1O[C@H](COP(=O)(N[C@@H](CCSC)C(=O)O[C@@H](C)c2ccccc2)Oc2cccc3ccccc23)[C@@H](O)[C@@]1(C)O` (stereo partly drawn) [Example 59, (2S)-((S)-1-phenylethyl) 2-((((2R,3R,4R)-5-(2-amino-6-methoxy-9H-purin-9-yl)-3,4-dihydroxy-4-methyltetrahydrofuran-2-yl)methoxy)(naphthalen-1-yloxy)phosphorylamino)-4-(methylthio)butanoate], the CC50 in the series “in vitro” amounted to 30 µM. The IC50 in series [1] (setting [2]) worked out at 0.32 µM.
With `CNc1nc(N)nc2c1ncn2C1O[C@H](COP(=O)(N[C@@H](C)C(=O)OCC(C)(C)C)Oc2cccc3ccccc23)[C@@H](O)[C@@]1(C)O` (stereo partly drawn) [Example 81, (2S)-neopentyl 2-((((2R,3R,4R)-5-(2-amino-6-(methylamino)-9H-purin-9-yl)-3,4-dihydroxy-4-methyltetrahydrofuran-2-yl)methoxy)(naphthalen-1-yloxy)phosphorylamino)propanoate], the CC50 in the series “in vitro” turned out to be 48 µM. In addition, the IC50 in series [1] (read-out: IC50 μM) amounted to 0.033 µM.
Compound `COc1nc(N)nc2c1ncn2C1O[C@H](COP(=O)(N[C@H](C(=O)O[C@@H](C)c2ccc(Br)cc2)C(C)C)Oc2cccc3ccccc23)[C@@H](O)[C@@]1(C)O` (stereo partly drawn) [Example 39, (2S)-((S)-1-(4-bromophenyl)ethyl) 2-((((2R,3R,4R)-5-(2-amino-6-methoxy-9H-purin-9-yl)-3,4-dihydroxy-4-methyltetrahydrofuran-2-yl)methoxy)(naphthalen-1-yloxy)phosphorylamino)-3-methylbutanoate] returned a CC50 in “in vitro” of 0.9 µM. For the same compound, the 50% inhibitory concentration (IC50) in series [1] (setting [2]) amounted to 2.2 µM.
For `COc1nc(N)nc2c1ncn2C1O[C@H](CO[P@](=O)(N[C@@H](C)C(=O)OCC(C)(C)C)Oc2cccc3ccccc23)[C@@H](O)[C@@]1(C)O` (single isomer, unassigned) [Example 22], in that order: 6 µM and 0.019 µM.
Compound `COc1nc(N)nc2c1ncn2C1O[C@H](COP(=O)(N[C@@H](C)C(=O)OC2CCCCC2)Oc2cccc3ccccc23)C[C@@]1(C)O` (stereo partly drawn) [Example 98, (2S)-cyclohexyl 2-((((2S,4R)-5-(2-amino-6-methoxy-9H-purin-9-yl)-4-hydroxy-4-methyltetrahydrofuran-2-yl)methoxy)(naphthalen-1-yloxy)phosphorylamino)propanoate] registered a CC50 in the series “in vitro” of 20 µM. Also, the IC50 in series [1] (setting [2]) is over 10 µM.
`COc1nc(N)nc2c1ncn2C1O[C@H](COP(=O)(N[C@H](C(=O)OCc2ccccc2)C(C)C)Oc2cccc3ccccc23)C[C@@]1(C)O` (stereo partly drawn) [Example 99, benzyl (2S)-benzyl 2-((((2S,4R)-5-(2-amino-6-methoxy-9H-purin-9-yl)-4-hydroxy-4-methyltetrahydrofuran-2-yl)methoxy)(naphthalen-1-yloxy)phosphorylamino)-3-methylbutanoate]: in the series “in vitro”, the CC50 stood at 22 µM. The IC50 in series [1] (setting [2]) was over 10 µM.
For `CCOc1nc(N)nc2c1ncn2C1O[C@H](COP(=O)(N[C@@H](C)C(=O)OCc2ccccc2)Oc2cccc3ccccc23)[C@@H](O)[C@@]1(C)O` (stereo partly drawn) [Example 73, (2S)-benzyl 2-((((2R,3R,4R)-5-(2-amino-6-ethoxy-9H-purin-9-yl)-3,4-dihydroxy-4-methyltetrahydrofuran-2-yl)methoxy)(naphthalen-1-yloxy)phosphorylamino)propanoate], in that order: 11 µM and 0.037 µM.
On the same counts, the results for `COc1nc(N)nc2c1ncn2C1O[C@H](COP(=O)(N[C@@H](C)C(=O)OCC(C)(C)C)Oc2ccc3ncccc3c2)[C@@H](O)[C@@]1(C)O` (stereo partly drawn) [Example 33, (2S)-neopentyl 2-((((2R,3R,4R)-5-(2-amino-6-methoxy-9H-purin-9-yl)-3,4-dihydroxy-4-methyltetrahydrofuran-2-yl)methoxy)(quinolin-6-yloxy)phosphorylamino)propanoate] are over 100 µM and 0.26 µM.
On the same counts, the results for `CCOc1nc(N)nc2c1ncn2C1O[C@H](COP(=O)(N[C@@H](C)C(=O)OC2CCOCC2)Oc2cccc3ccccc23)[C@@H](O)[C@@]1(C)O` (stereo partly drawn) [Example 78, (2S)-tetrahydro-2H-pyran-4-yl 2-((((2R,3R,4R)-5-(2-amino-6-ethoxy-9H-purin-9-yl)-3,4-dihydroxy-4-methyltetrahydrofuran-2-yl)methoxy)(naphthalen-1-yloxy)phosphorylamino)propanoate] are 47 µM and 0.059 µM.
`COc1nc(N)nc2c1ncn2C1O[C@H](COP(=O)(N[C@@H](C)C(=O)OCc2ccc(F)cc2F)Oc2cccc3ccccc23)[C@@H](O)[C@@]1(C)O` (stereo partly drawn) [Example 14, (2S)-2,4-difluorobenzyl 2-((((2R,3R,4R)-5-(2-amino-6-methoxy-9H-purin-9-yl)-3,4-dihydroxy-4-methyltetrahydrofuran-2-yl)methoxy)(naphthalen-1-yloxy)phosphorylamino)propanoate]: the CC50 in “in vitro” came out at 15 µM. Further, in series [1] (setting [2]), the IC50 is 0.04 µM.
In the series “in vitro”, `CNc1nc(N)nc2c1ncn2C1O[C@H](COP(=O)(N[C@@H](C)C(=O)O[C@@H](C)c2ccccc2)Oc2cccc3ccccc23)[C@@H](O)[C@@]1(C)O` (stereo partly drawn) [Example 82, (2S)-((S)-1-phenylethyl) 2-((((2R,3R,4R)-5-(2-amino-6-(methylamino)-9H -purin-9-yl)-3,4-dihydroxy-4-methyltetrahydrofuran-2-yl)methoxy) (naphthalen-1-yloxy)phosphorylamino)propanoate] displayed a CC50 of 54 µM. For the same compound, in series [1] (setting [2]), the IC50 was found to be 0.11 µM.
On the same counts, the results for `COc1nc(N)nc2c1ncn2C1O[C@H](COP(=O)(N[C@@H](C)C(=O)OCc2ccccc2)Oc2cccc3ccccc23)C[C@@]1(C)O` (stereo partly drawn) [Example 95, (2S)-benzyl 2-((((2S,4R)-5-(2-amino-6-methoxy-9H-purin-9-yl)-4-hydroxy-4-methyltetrahydrofuran-2-yl)methoxy)(naphthalen-1-yloxy)phosphorylamino)propanoate] are 70 µM and 0.9 µM.
With `COc1nc(N)nc2c1ncn2C1O[C@H](COP(=O)(N[C@@H](CCSC)C(=O)OCC(C)(C)C)Oc2cccc3ccccc23)[C@@H](O)[C@@]1(C)O` (stereo partly drawn) [Example 60], in the series “in vitro”, the CC50 stood at 28 µM. Moreover, the 50% inhibitory concentration (IC50) in series [1] (setting [2]) came to 0.06 µM.
On the same counts, the results for `COC(=O)[C@@H](C)c1ccc2cc(OP(=O)(N[C@@H](C)C(=O)OCc3ccc(F)cc3F)OC[C@H]3OC(n4cnc5c(OC)nc(N)nc54)[C@](C)(O)[C@@H]3O)ccc2c1` (stereo partly drawn) [Example 27, (2S)-2,4-difluorobenzyl 2-((((2R,3R,4R)-5-(2-amino-6-methoxy-9H-purin-9-yl)-3,4-dihydroxy-4-methyltetrahydrofuran-2-yl)methoxy)(6-((S)-1-methoxy-1-oxopropan-2-yl)naphthalen-2-yloxy)phosphorylamino)propanoate] are 28 µM and 0.055 µM.
On the same counts, the results for `CSc1nc(N)nc2c1ncn2C1O[C@H](COP(=O)(N[C@@H](C)C(=O)O[C@@H](C)c2ccccc2)Oc2cccc3ccccc23)[C@@H](O)[C@@]1(C)O` (stereo partly drawn) [Example 89, (2S)-((S)-1-phenylethyl) 2-((((2R,3R,4R)-5-(2-amino-6-(methylthio)-9H-purin-9-yl)-3,4-dihydroxy-4-methyltetrahydrofuran-2-yl)methoxy)(naphthalen-1-yloxy)phosphorylamino)propanoate] are 27 µM and 0.14 µM.
On the same counts, the results for `COC(=O)[C@@H](C)c1ccc2cc(OP(=O)(N[C@H](C(=O)OCC(C)(C)C)C(C)C)OC[C@H]3OC(n4cnc5c(OC)nc(N)nc54)[C@](C)(O)[C@@H]3O)ccc2c1` (stereo partly drawn) [Example 48, (2S)-neopentyl 2-((((2R,3R,4R)-5-(2-amino-6-methoxy-9H-purin-9-yl)-3,4-dihydroxy-4-methyltetrahydrofuran-2-yl)methoxy) (6-((S)-1-methoxy-1-oxopropan-2-yl)naphthalen-2-yloxy)phosphorylamino)-3-methylbutanoate] are 29 µM and 0.21 µM.
